Experimental data: US6906108B2, “Extracts of vetiver oil as repellent and toxicant to ants, ticks, and cockroaches” (Board of Supervisors of Louisiana State University and …, priority 2001, dated 2005)

Legend:
[1] = test system: German cockroaches (Blattella germanica); assay: German cockroach Petri dish filter paper bioassay (repellency and toxicity); type: in vivo
Procedure: To test the efficacy of nootkatone against cockroaches, German cockroaches (Blattella germanica) were collected at Baton Rouge, La., the same day as the bioassay was begun.
For the bioassay, Petri dishes (10 cm diameter×1 cm) were used. The Petri dishes were prepared by lining one half of the top and one half of the bottom with a half circle of filter paper (125 mm), and lining the other half with a second half circle of filter paper. For the treated Petri dishes, 50 mg nootkatone and 300 mg REPEL® were dissolved in 2.0 ml ethanol. To each Petri dish was added either ethanol only, 30 mg Deet, 1 mg nootkatone, or 10 mg nootkatone. Ten replicate Petri dishes were used for each of the treatments. The ethanol solution was added to the filter paper on the top and bottom and dried for 10 min. One cockroach was added to each Petri dish. The length of the cockroaches varied from 1 to 1.5 cm. The dishes were then observed at 15 min, 30 min, 1 hr, 2 hr, 3 hr, 4 hr, 5 hr, 24 hr, 48 hr, and 120 hr.

[2] = test system: cat fleas (Ctenocephalides felis (Bouche)); assay: Cat flea Petri dish filter paper bioassay (repellency and mortality); type: in vivo
Procedure: To test the effectiveness of nootkatone against fleas, cat fleas (Ctenocephalides felis (Bouche)) were collected from a flea colony at St. Gabriel, La.
Petri dishes (5 cm diameter and 1 cm height) were prepared by lining one half of the top and the bottom with a half circle of filter paper (55 mm), and lining the other half with a second half circle of filter paper. For the treated Petri dishes, 50 mg nootkatone or 100 mg REPEL® were dissolved in 0.5 ml ethanol. […] Ten replicate Petri dishes were used for each of the treatments. The ethanol solution was added to the filter paper on the top and bottom and dried for 10 min. To place the fleas in the Petri dishes, fleas were temporarily immobilized by placing them at −20° C. for 5 min. The number of fleas in each Petri dish varied: for the 10 control Petri dishes, the average number in each dish was 10.2, with a range of 4 to 23; for 0.2 mg nootkatone, the average number in each dish was 8.5, with a range of 5 to 18; for 1 mg nootkatone, the average number in each dish was 10.6, with a range of 6 to 21; for 2 mg nootkatone, the average number in each dish was 11.1, with a range of 9 to 15 (Fleas could be counted in only 9 Petri dishes; one had too many fleas to count); and for 2.76 mg Deet, the average number in each dish was 6.7, with a range of 5 to 9.
The number of fleas on each side of each Petri dish was counted at 1 hr, 2 hr, 3 hr, 4 hr, 24 hr, 48 hr, 72 hr, and 96 hr.

C=C(C)C1CCC2=CC(=O)CC(C)C2(C)C1 (stereo not shown) [nootkatone, 4,4a,5,6,7,8-hexahydro-6-isopropenyl-4,4a-dimethyl-2(3H)-naphthalone]
Repellent activity against the cockroaches ([1]; 1 mg per dish): weak repellent | Percent Repellency ([1]; 1 mg per dish, 30 min): 70% | Percent Repellency ([1]; 1 mg per dish, 1 hr): 60% | Percent Repellency ([1]; 1 mg per dish, 2 hr): 50% | Percent Repellency ([1]; 1 mg per dish, 3 hr): 78% | Percent Repellency ([1]; 1 mg per dish, 4 hr): 78% | Percent Repellency ([1]; 1 mg per dish, 5 hr): 78% | Percent Repellency ([1]; 1 mg per dish, 24 hr): 56% | Percent Repellency ([1]; 1 mg per dish, 48 hr): 78% | Percent Repellency ([1]; 1 mg per dish, 120 hr): 100% | Percent Repellency ([1]; 10 mg per dish, 30 min): 90% | Percent Repellency ([1]; 10 mg per dish, 1 hr): 100% | Percent Repellency ([1]; 10 mg per dish, 2 hr): 100% | Percent Repellency ([1]; 10 mg per dish, 3 hr): 100% | Percent Repellency ([1]; 10 mg per dish, 4 hr): 100% | Percent Repellency ([1]; 10 mg per dish, 5 hr): 100% | Percent Repellency ([1]; 10 mg per dish, 24 hr): 100% | Percent Repellency ([1]; 10 mg per dish, 48 hr): 100% | Percent Repellency ([1]; 10 mg per dish, 120 hr): 100% | Number of cockroach deaths compared with the control ([1]; any of the treatments (30 mg Deet; 1 mg or 10 mg nootkatone), up to 120 hr): not significantly different from the control | Percent Flea Mortality ([2]; 0.2 mg per dish, 1 hr): 0% | Percent Flea Mortality ([2]; 0.2 mg per dish, 2 hr): 0% | Percent Flea Mortality ([2]; 0.2 mg per dish, 3 hr): 0% | Percent Flea Mortality ([2]; 0.2 mg per dish, 4 hr): 0% | Percent Flea Mortality ([2]; 0.2 mg per dish, 24 hr): 22% | Percent Flea Mortality ([2]; 0.2 mg per dish, 48 hr): 45% | Percent Flea Mortality ([2]; 0.2 mg per dish, 72 hr): 72% | Percent Flea Mortality ([2]; 0.2 mg per dish, 96 hr): 79% | Repellent activity against fleas ([2]; 0.2 mg, 1 mg and 2 mg per dish): no repellent activity | Toxicant activity against fleas ([2]; 0.2 mg, 1 mg and 2 mg per dish): only delayed toxicant activity | Percent Flea Mortality ([2]; 1 mg per dish, 1 hr): 0% | Percent Flea Mortality ([2]; 1 mg per dish, 2 hr): 0% | Percent Flea Mortality ([2]; 1 mg per dish, 3 hr): 16% | Percent Flea Mortality ([2]; 1 mg per dish, 4 hr): 38% | Percent Flea Mortality ([2]; 1 mg per dish, 24 hr): 66% | Percent Flea Mortality ([2]; 1 mg per dish, 48 hr): 92% | Percent Flea Mortality ([2]; 1 mg per dish, 72 hr): 89% | Percent Flea Mortality ([2]; 1 mg per dish, 96 hr): 98% | Percent Flea Mortality ([2]; 2 mg per dish, 1 hr): 0% | Percent Flea Mortality ([2]; 2 mg per dish, 2 hr): 0% | Percent Flea Mortality ([2]; 2 mg per dish, 3 hr): 26% | Percent Flea Mortality ([2]; 2 mg per dish, 4 hr): 50% | Percent Flea Mortality ([2]; 2 mg per dish, 24 hr): 77% | Percent Flea Mortality ([2]; 2 mg per dish, 48 hr): 84% | Percent Flea Mortality ([2]; 2 mg per dish, 72 hr): 91% | Percent Flea Mortality ([2]; 2 mg per dish, 96 hr): 94%
